Data taken from the supplement of paper PMC11061612.

Columns and labels:
Assay in all cases: Bliss excess, mean over the matrix (fraction); higher = more synergy
A704 (Kidney Carcinoma) = tested on: A704 (Kidney Carcinoma)
Method in brief: (§1)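 Bliss excess equals the observed combination effect minus the expected value EA + EB − EA·EB, where EA and EB are the effects of each agent alone. Combination Emax is the second-highest inhibition within the matrix. Inhibition was scaled from CellTiter-Glo 2.0 luminescence, with 0 set by vehicle wells and 1 by blank wells, after 72 hours of two-drug dosing of cells plated in 1536-well plates.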

[1] = tested on: DG-75 (Burkitt's Lymphoma)
Method in brief: as §1

EW-13 (Ewing's Sarcoma) = tested on: EW-13 (Ewing's Sarcoma)
Method in brief: as §1

EW-3 (Ewing's Sarcoma) = tested on: EW-3 (Ewing's Sarcoma)
Method in brief: as §1

GOTO (Neuroblastoma) = tested on: GOTO (Neuroblastoma)
Method in brief: as §1

[2] = tested on: HC-1 (Other Blood Carcinomas)
Method in brief: as §1

IMR-5 (Neuroblastoma) = tested on: IMR-5 (Neuroblastoma)
Method in brief: as §1

[3] = tested on: KP-2 (Pancreatic Carcinoma)
Method in brief: as §1

[4] = tested on: KU-19-19 (Bladder Carcinoma)
Method in brief: as §1

[5] = tested on: NCI-H1573 (Lung Adenocarcinoma)
Method in brief: as §1

[6] = tested on: NCI-H2405 (Lung Adenocarcinoma)
Method in brief: as §1

[7] = tested on: OCUB-M (Breast Carcinoma)
Method in brief: as §1

[8] = tested on: SCC-9 (Oral Cavity Carcinoma)
Method in brief: as §1

[9] = tested on: VMRC-LCD (Lung Adenocarcinoma)
Method in brief: as §1

Row | SMILES | Bliss excess (A704 (Kidney Carcinoma)) | Bliss excess [1] | Bliss excess (EW-13 (Ewing's Sarcoma)) | Bliss excess (EW-3 (Ewing's Sarcoma)) | Bliss excess (GOTO (Neuroblastoma)) | Bliss excess [2] | Bliss excess (IMR-5 (Neuroblastoma)) | Bliss excess [3] | Bliss excess [4] | Bliss excess [5] | Bliss excess [6] | Bliss excess [7] | Bliss excess [8] | Bliss excess [9]
1 | Cc1c2c(nn1C)CSCc1cc(n(C)n1)CSc1cc(c3ccccc3c1)OCCCc1c(C(=O)O)n(C)c3c-2c(Cl)ccc13 [AZD5991] + C[C@@H](Nc1cc(F)cc(F)c1)c1cc(C(=O)N(C)C)cc2c(=O)cc(N3CCOCC3)oc12 [AZD8186] (first compound max 1 µM, 7x7, partner max 3 µM) | -0.0291 | 0.0008 | -0.0535 | -0.0129 | -0.0589 | 0.0381 | -0.0006 | 0.0193 | 0.0033 | -0.0303 | -0.0114 | -0.0067 | -0.0058 | -0.024
2 | C[C@@H]1COCCN1c1cc(C2([S@](C)(=N)=O)CC2)nc(-c2ccnc3[nH]ccc23)n1 [AZD6738] + O=C(c1cc(Cc2n[nH]c(=O)c3ccccc23)ccc1F)N1CCN(C(=O)C2CC2)CC1 [Olaparib] (first compound max 10 µM, 7x7, partner max 10 µM) | -0.0282 | -0.0619 | -0.0574 | -0.0558 | -0.0645 | -0.0238 | 0.0432 | 0.0024 | -0.032 | 0.0201 | 0.0132 | 0.0347 | 0.0422 | -0.0231
3 | COc1cccc(OCCCN)c1-c1cc(Nc2cnc(C#N)cn2)n[nH]1 [Prexasertib] + Cc1cc2ncnn2cc1Nc1ncc2c(n1)n(C1CCOCC1)c(=O)n2C [AZD7648] (first compound max 1 µM, 7x7, partner max 10 µM) | 0.0144 | -0.055 | -0.015 | 0.0201 | -0.0243 | 0.0069 | -0.0065 | 0.0258 | -0.0038 | 0.0058 | -0.0386 | -0.0611 | 0.0092 | -0.0323
4 | CC1(C)CCC(CN2CCN(c3ccc(C(=O)NS(=O)(=O)c4ccc(NCC5CCOCC5)c([N+](=O)[O-])c4)c(Oc4cnc5[nH]ccc5c4)c3)CC2)=C(c2ccc(Cl)cc2)C1 [Venetoclax] + CN(C)CCCOc1ccc(-c2ccc3ncc4c(c3c2)n(C2CCOCC2)c(=O)n4C)cn1 [AZD0156] (first compound max 1 µM, 7x7, partner max 1 µM) | -0.0717 | -0.0123 | -0.0351 | 0.032 | -0.0194 | -0.0244 | -0.0087 | -0.0193 | -0.0167 | -0.0249 | -0.0324 | 0.0289 | -0.0351 | -0.0333
5 | CN(CCO)CC[C@H](CSc1ccccc1)Nc1ccc(S(=O)(=O)NC(=O)c2ccc(N3CCC([C@@H](O)c4ccccc4-c4ccc(Cl)cc4)CC3)cc2)cc1S(=O)(=O)C(F)(F)F [AZD4320] + CCN(CCO)CCCOc1ccc2c(Nc3cc(CC(=O)Nc4cccc(F)c4)[nH]n3)ncnc2c1 [AZD2811] (first compound max 1 µM, 7x7, partner max 1 µM) | -0.0659 | -0.0224 | -0.0076 | 0.0814 | 0.0053 | 0.173 | -0.0229 | 0.0653 | 0.0207 | -0.0135 | -0.0333 | 0.0283 | -0.0115 | -0.0741
6 | Cn1cnc2c(F)c(Nc3ccc(Br)cc3Cl)c(C(=O)NOCCO)cc21 [Selumetinib] + C[C@@H]1COCCN1C2=NC(=NC(=C2)C3(CC3)[S@](=N)(=O)C)C4=C5C=CNC5=NC=C4 [AZD6738] (first compound max 10 µM, 7x7, partner max 10 µM) | -0.039 | -0.0328 | -0.0267 | -0.0489 | 0.0043 | -0.0743 | 0.0151 | 0.121 | -0.0147 | 0.0488 | 0.0971 | -0.0604 | -0.0302 | -0.0546
7 | Cn1cnc2c(F)c(Nc3ccc(Br)cc3Cl)c(C(=O)NOCCO)cc21 [Selumetinib] + CC(C)n1c(=O)n(C)c2cnc3cc(F)c(-c4ccc(OCCCN5CCCCC5)nc4)cc3c21 [AZD1390] (first compound max 10 µM, 7x7, partner max 0.3 µM) | -0.0225 | -0.024 | -0.0428 | -0.0455 | 0.0225 | -0.0327 | 0.0128 | -0.008 | -0.0257 | -0.0642 | 0.0387 | -0.0332 | 0.0185 | -0.0191
8 | Cc1nc(Nc2ncc(C(=O)Nc3c(C)cccc3Cl)s2)cc(N2CCN(CCO)CC2)n1 [Dasatinib] + CC(=O)Nc1cccc(-n2c(=O)n(C3CC3)c(=O)c3c(Nc4ccc(I)cc4F)n(C)c(=O)c(C)c32)c1 [Trametinib] (first compound max 2 µM, 7x7, partner max 1 µM) | 0.0541 | 0.0387 | -0.0443 | -0.0576 | -0.0631 | -0.0813 | -0.0059 | 0.136 | 0.0906 | 0.0311 | 0.0721 | -0.0384 | 0.0784 | -0.0596
9 | CN(C)CCCOc1ccc(-c2ccc3ncc4c(c3c2)n(C2CCOCC2)c(=O)n4C)cn1 [AZD0156] + C[C@@H]1COCCN1C2=NC(=NC(=C2)C3(CC3)[S@](=N)(=O)C)C4=C5C=CNC5=NC=C4 [AZD6738] (first compound max 1 µM, 7x7, partner max 10 µM) | -0.0067 | 0.0645 | 0.0006 | -0.0721 | -0.0394 | -0.0214 | -0.0432 | 0.0173 | 0.0275 | -0.0098 | -0.0027 | -0.026 | -0.0424 | -0.0343
10 | CC(=O)c1c(C)c2cnc(Nc3ccc(N4CCNCC4)cn3)nc2n(C2CCCC2)c1=O [Palbociclib] + Cc1c2c(nn1C)CSCc1cc(n(C)n1)CSc1cc(c3ccccc3c1)OCCCc1c(C(=O)O)n(C)c3c-2c(Cl)ccc13 [AZD5991] (first compound max 10 µM, 7x7, partner max 1 µM) | -0.0629 | 0.0332 | -0.0346 | -0.0003 | 0.0483 | -0.152 | 0.0155 | -0.0445 | -0.0215 | -0.0539 | -0.0149 | -0.0004 | -0.0368 | -0.0288
11 | CC1(C)CCC(CN2CCN(c3ccc(C(=O)NS(=O)(=O)c4ccc(NCC5CCOCC5)c([N+](=O)[O-])c4)c(Oc4cnc5[nH]ccc5c4)c3)CC2)=C(c2ccc(Cl)cc2)C1 [Venetoclax] + CCN(CCO)CCCOc1ccc2c(Nc3cc(CC(=O)Nc4cccc(F)c4)[nH]n3)ncnc2c1 [AZD2811] (first compound max 1 µM, 7x7, partner max 1 µM) | -0.0365 | -0.0104 | -0.0499 | 0.0634 | 0.0162 | 0.177 | -0.0014 | -0.0247 | -0.059 | -0.0246 | -0.0345 | -0.049 | -0.0214 | -0.0227
12 | Cn1cnc2c(F)c(Nc3ccc(Br)cc3Cl)c(C(=O)NOCCO)cc21 [Selumetinib] + CCN(CCO)CCCOc1ccc2c(Nc3cc(CC(=O)Nc4cccc(F)c4)[nH]n3)ncnc2c1 [AZD2811] (first compound max 10 µM, 7x7, partner max 1 µM) | -0.058 | 0.0193 | -0.0108 | -0.0112 | -0.0175 | 0.0547 | -0.0062 | 0.0449 | 0.0258 | -0.0318 | -0.0127 | -0.0959 | 0.0722 | -0.0162
13 | Cc1c2c(nn1C)CSCc1cc(n(C)n1)CSc1cc(c3ccccc3c1)OCCCc1c(C(=O)O)n(C)c3c-2c(Cl)ccc13 [AZD5991] + Cc1cc2ncnn2cc1Nc1ncc2c(n1)n(C1CCOCC1)c(=O)n2C [AZD7648] (first compound max 1 µM, 7x7, partner max 10 µM) | -0.0914 | 0.0116 | 0.014 | -0.0626 | -0.02 | -0.024 | 0.0226 | -0.0103 | 0.0025 | 0.0523 | -0.0391 | -0.0448 | -0.0716 | -0.0302
14 | CCN(CCO)CCCOc1ccc2c(Nc3cc(CC(=O)Nc4cccc(F)c4)[nH]n3)ncnc2c1 [AZD2811] + C[C@@H]1COCCN1C2=NC(=NC(=C2)C3(CC3)[S@](=N)(=O)C)C4=C5C=CNC5=NC=C4 [AZD6738] (first compound max 1 µM, 7x7, partner max 10 µM) | -0.0087 | -0.0611 | -0.0257 | -0.0152 | 0.027 | -0.007 | -0.0339 | -0.0084 | -0.0384 | -0.0613 | -0.0526 | -0.107 | -0.0594 | -0.0853
